Holding throughout (format): cell-based
Assay [1] deals with A172. The experiment in a line: Cell vitality assay (ATP assay, CellTiter-Glo). The following applies: Homo sapiens, A 172; A172, 72 h; Table IIa; read-out: IC50 ATP-Assay after 72 h A172. The method in brief:
(§1)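 ATP-based luminescence (CellTiter-Glo) after 72 h exposure of 1000 cells/well to seven compound concentrations from 0.195 to 12.5 μM. IC50 defined as concentration reducing ATP to 50% of DMSO control.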
In general terms: Cellular ATP, detected with luciferase, serves as a proxy for viable cell number.

Assay [2] concerns C8161. The experiment in a line: Cell vitality assay (ATP assay, CellTiter-Glo). To be noted: Homo sapiens; C8161, 72 h; Table IIa; read-out: IC50 ATP-Assay after 72 h C8161. The method in brief:
as §1

The subject of assay [3] is MDA-MB231. The experiment in a line: Cell vitality assay (ATP assay, CellTiter-Glo). The following applies: Homo sapiens, MDA-MB-231. The method in brief: as §1
Assay [4] has as its system SF763. The experiment in a line: Cell vitality assay (ATP assay, CellTiter-Glo). The following applies: SF763, 72 h; Table IIa; read-out: IC50 ATP-Assay after 72 h SF763. The method in brief:
as §1

Assay [5] deals with U138. The experiment in a line: Cell vitality assay (ATP assay, CellTiter-Glo). The following applies: U138, 72 h; Table IIa; read-out: IC50 ATP-Assay after 72 h U138. In short, it runs like this: as §1
The test system of assay [6] is C8161. As to the kind of experiment: Apoptosis assay (Cellomics, nucleus condensation). The following applies: Homo sapiens, Table III, read-out: Apoptosis induction in C8161. The method in brief: (§2)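 Cells at 5000 per well were stained live with Hoechst 33342 and imaged on an automated fluorescence microscope after 24 h and 48 h compound exposure (12.5 μM down to 0.39 μM, twofold steps; DMSO control). Per-nucleus intensity variation quantified nuclear condensation; cell counts were also recorded.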

Assay [7] has as its system Hs578T. As to the kind of experiment: Apoptosis assay (Cellomics, nucleus condensation). The following applies: Homo sapiens, Hs-578T, Table III, read-out: Apoptosis induction in Hs578T. The method in brief: as §2
The test system of assay [8] is SF126. As to the kind of experiment: Apoptosis assay (Cellomics, nucleus condensation). The following applies: Homo sapiens, SF-126, Table III, read-out: Apoptosis induction in SF126. In short, it runs like this: as §2
For assay [9], the system named is SF763. The experiment in a line: Apoptosis assay (Cellomics, nucleus condensation). To be noted: Table III, read-out: Apoptosis induction in SF763. In short, it runs like this:
as §2

The test system of assay [10] is U118. The experiment in a line: Apoptosis assay (Cellomics, nucleus condensation). The following applies: Table III, read-out: Apoptosis induction in U118. The method in brief:
as §2

For assay [11], the system named is U138. As to the kind of experiment: Apoptosis assay (Cellomics, nucleus condensation). The following applies: Table III, read-out: Apoptosis induction in U138. The method in brief: as §2
Assay [12] deals with viable cells in culture. The experiment in a line: Cell viability assay at 10 μM (CellTiter-Glo, Table VII).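 Further: graded A 0-20%; B 21-40%; C 41-60%; D over 60% viable cells relative to DMSO control.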 To be noted: compound 10 μM, 72 h. In short, it runs like this:
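Cells were seeded at 1000 cells/well in 96-well plates in 100 μl culture medium and incubated for 72 h with 10 μM compound or a DMSO control. ATP content, which reflects metabolically active and therefore viable cells, was then determined by CellTiter-Glo luminescence (Promega) per the manufacturer's instructions and expressed relative to the DMSO control.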

Assay [13] concerns cells. The experiment in a line: Boyden chamber migration assay (Table VI). The following applies: Hs578T cells, 16 h migration. The method in brief:
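Migration read-out is a count of fixed cells on the underside of an […] insert membrane after 16 h. Chemoattractant was medium with 10% FCS in the lower chamber; 20000 cells started in serum-free medium with 0.1% BSA above, and those left on top were removed by swab.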

The mark [14] stands for this setting: MDA-MB231, 72 h, Table IIa, read-out: IC50 ATP-Assay after 72 h MDA-MB231.
Where [15] appears, read: Homo sapiens, HCT-116, HCT116 def, read-out: percentage (%) of viable cells HCT 116def.
Setting [16] is: Homo sapiens, HCT-116, HCT116 wt, read-out: percentage (%) of viable cells HCT 116wt.
Where [17] appears, read: Homo sapiens, HT-29, HT29, read-out: percentage (%) of viable cells HT29.
[18] abbreviates: Homo sapiens, NCI-H358, H358, read-out: percentage (%) of viable cells H358.
[19] abbreviates: Homo sapiens, NCI-H1650, H1650, read-out: percentage (%) of viable cells H1650.
[20] abbreviates: Homo sapiens, NCI-H1666, H1666, read-out: percentage (%) of viable cells H1666.
The mark [21] stands for this setting: Homo sapiens, NCI-H1975, H1975, read-out: percentage (%) of viable cells H1975.
The mark [22] stands for this setting: Homo sapiens, NCI-H1993, H1993, read-out: percentage (%) of viable cells H1993.
Where [23] appears, read: Homo sapiens, A549, read-out: percentage (%) of viable cells A549.
Where [24] appears, read: Homo sapiens, HCC827, read-out: percentage (%) of viable cells HCC827.
[25] abbreviates: Homo sapiens, SW480, read-out: percentage (%) of viable cells SW480.
Where [26] appears, read: RKO, read-out: percentage (%) of viable cells RKO.

Like-named read-outs stand apart in the source and are kept apart here.

For the molecule `COc1cc2c(Oc3ccc(NS(=O)(=O)c4cc(F)ccc4F)cc3F)ccnc2cc1OCCCN1CCCCC1` [Example 1, 2,5-Difluoro-N-{3-fluoro-4-[6-methoxy-7-(3-piperidin-1-yl-propoxy)-quinolin-4-yloxy]-phenyl}-benzenesulfonamide], the IC50 in assay [1] is at most 12.5 µM; in assay [2], 12.5 to 50 µM; in [3] (setting [14]), 12.5 to 50 µM; in [3] (cell vitality assay, MDA-MB231, Table IIc, read-out: IC50 MDA-MB231), at most 12.5 µM; in [4], at most 12.5 µM; in assay [5] it was at most 12.5 µM. Besides, the IC50 in assay [6] was at most 12.5 µM; in assay [7], at most 12.5 µM; in [8] it was at most 12.5 µM; in [9], 12.5 to 50 µM; in assay [10] it was at most 12.5 µM; in [11], at most 12.5 µM. Moreover, the viability at 10 µM is 0 to 20% in [12] (setting [15]); 0 to 20% in assay [12] (setting [16]); 21 to 40% in [12] (setting [17]); 0 to 20% in assay [12] (setting [18]); 41 to 60% in assay [12] (setting [19]); 41 to 60% in assay [12] (setting [20]). Moreover, the viability at 10 µM in [12] (setting [21]) was 21 to 40%; in assay [12] (setting [22]) it was 21 to 40%; in assay [12] (setting [23]), over 60%; in assay [12] (setting [24]), 21 to 40%; in assay [12] (setting [25]) it was 0 to 20%; in assay [12] (setting [26]) it was 0 to 20%.

For the molecule `COc1cc2c(Oc3ccc(NS(=O)(=O)c4ccccc4[N+](=O)[O-])cc3F)ccnc2cc1OCCCN1CCCCC1` [Example 7, N-{3-Fluoro-4-[6-methoxy-7-(3-piperidin-1-yl-propoxy)-quinolin-4-yloxy]-phenyl}-2-nitro-benzenesulfonamide], the IC50 in assay [1] was 12.5 to 50 µM; in [2], at most 12.5 µM; in assay [3] (setting [14]), at most 12.5 µM; in assay [4] it was at most 12.5 µM; in [5] it was at most 12.5 µM; in assay [6], at most 12.5 µM. Further, the IC50 in assay [7] was at most 12.5 µM; in [9], at most 12.5 µM; in assay [10] it was 12.5 to 50 µM; in assay [11], at most 12.5 µM; in [13] (Homo sapiens, Hs-578T, 16 h), at most 5 µM. Further, the viability at 10 µM in assay [12] (setting [15]) is 21 to 40%; in assay [12] (setting [16]) it was 0 to 20%; in [12] (setting [17]), 0 to 20%; in [12] (setting [18]), 0 to 20%; in [12] (setting [19]), 0 to 20%; in assay [12] (setting [20]) it was 21 to 40%. Moreover, the viability at 10 µM in [12] (setting [21]) was 21 to 40%; in assay [12] (setting [22]), 21 to 40%; in assay [12] (setting [23]), 41 to 60%; in assay [12] (setting [24]) it was 0 to 20%; in assay [12] (setting [25]), 0 to 20%; in assay [12] (setting [26]), 0 to 20%.

Regarding `COc1cc2c(Oc3c(Cl)cc(NS(=O)(=O)c4c(F)cccc4F)cc3Cl)ccnc2cc1OCCCN1CCN(C)CC1` [Example 88, N-(3,5-Dichloro-4-{6-methoxy-7-[3-(4-methyl-piperazin-1-yl)-propoxy]-quinolin-4-yloxy}-phenyl)-2,6-difluoro-benzenesulfonamide], the IC50 in assay [2] was at most 12.5 µM; in assay [3] (setting [14]), at most 12.5 µM; in [4], 12.5 to 50 µM; in assay [5] it was 12.5 to 50 µM; in [6] it was at most 12.5 µM; in assay [7], at most 12.5 µM. Moreover, the IC50 in assay [8] was at most 12.5 µM; in assay [9], at most 12.5 µM; in assay [10] it was at most 12.5 µM; in assay [11], at most 12.5 µM; in assay [13] (Homo sapiens, Hs-578T, 16 h), at most 5 µM. Moreover, the viability at 10 µM lay within 0 to 20% in [12] (setting [15]); 41 to 60% in assay [12] (setting [16]); 21 to 40% in assay [12] (setting [17]); 0 to 20% in assay [12] (setting [18]); 41 to 60% in assay [12] (setting [19]); 21 to 40% in assay [12] (setting [20]). The viability at 10 µM in [12] (setting [21]) was 0 to 20%; in [12] (setting [22]), 0 to 20%; in [12] (setting [23]), 41 to 60%; in assay [12] (setting [24]), 0 to 20%; in assay [12] (setting [25]), 21 to 40%; in assay [12] (setting [26]), 41 to 60%.

`COc1cc2c(Oc3ccc(NS(=O)(=O)c4ccccc4C(F)(F)F)cc3F)ccnc2cc1OCC(=O)N(C)C` [Example 93, 2-{4-[2-Fluoro-4-(2-trifluoromethyl-benzenesulfonylamino)-phenoxy]-6-methoxy-quinolin-7-yloxy}-N,N-dimethyl-acetamide]: the IC50 in assay [2] is at most 12.5 µM; in assay [3] (setting [14]) it was 12.5 to 50 µM; in assay [4], 12.5 to 50 µM; in assay [5] it was 12.5 to 50 µM; in assay [6] it was at most 12.5 µM; in [7], at most 12.5 µM. For the same molecule, the IC50 in assay [8] was at most 12.5 µM; in assay [9], at most 12.5 µM; in assay [10], at most 12.5 µM; in assay [11] it was at most 12.5 µM; in assay [13] (Homo sapiens, Hs-578T, 16 h), 5 to 50 µM; in assay [13], at most 5 µM. Further, the viability at 10 µM in assay [12] (setting [15]) is 21 to 40%; in assay [12] (setting [16]), over 60%; in assay [12] (setting [17]) it was 0 to 20%; in [12] (setting [18]) it was 0 to 20%; in assay [12] (setting [19]), 21 to 40%; in assay [12] (setting [20]), 21 to 40%. For the same molecule, the viability at 10 µM in assay [12] (setting [21]) was 0 to 20%; in assay [12] (setting [22]) it was 21 to 40%; in assay [12] (setting [23]), over 60%; in assay [12] (setting [24]) it was 21 to 40%; in [12] (setting [25]) it was 0 to 20%; in assay [12] (setting [26]) it was 0 to 20%.

On to `COc1cc2c(Oc3ccc(NS(=O)(=O)c4ccccc4C(F)(F)F)cc3F)ccnc2cc1OCCCNC1CCOCC1` [Example 95, N-(3-Fluoro-4-{6-methoxy-7-[3-(tetrahydro-pyran-4-ylamino)-propoxy]-quinolin-4-yloxy}-phenyl)-2-trifluoromethyl-benzenesulfonamide], for which the IC50 was 12.5 to 50 µM in [2]; at most 12.5 µM in [3] (setting [14]); at most 12.5 µM in assay [4]; at most 12.5 µM in [5]; at most 12.5 µM in [6]; at most 12.5 µM in assay [7]. Further, the IC50 in assay [8] was at most 12.5 µM; in assay [9], at most 12.5 µM; in [10], at most 12.5 µM; in assay [11], at most 12.5 µM; in [13] (Homo sapiens, Hs-578T, 16 h), at most 5 µM. Further, the viability at 10 µM was 21 to 40% in [12] (setting [15]); 21 to 40% in assay [12] (setting [16]); 0 to 20% in assay [12] (setting [17]); 0 to 20% in [12] (setting [18]); 21 to 40% in assay [12] (setting [19]); 21 to 40% in [12] (setting [20]). The viability at 10 µM was 0 to 20% in [12] (setting [21]); 0 to 20% in assay [12] (setting [22]); over 60% in [12] (setting [23]); 21 to 40% in [12] (setting [24]); 0 to 20% in assay [12] (setting [25]); 0 to 20% in assay [12] (setting [26]).

(Values after patent US9169241B2, “Quinolinyloxyphenylsulfonamides” (Max-Planck-Gesellschaft Zur Forderung der Wissenschaften …, priority 2009, dated 2015).)
